Test results from PubChem BioAssay AID1963849 (Molecular Pharmacology Branch, DTP, NCI, 2024).
pIC50: −log10 of the molar value.

System: 299254-011-R-J1-PDC complex spheroid viability
Experiment: Anticancer human tumor 299254-011-R-J1-PDC patient-derived melanoma cell line growth inhibition [POLQ]
Settings: for pIC50: curve of first compound; for viability, T/C: stronger effect = lower value
Outline: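 Three-cell-type spheroids modelling solid tumor plus stroma served as the readout system; POL inhibitors were tested individually and in combination, concentration ranges set by clinical Cmax where known.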
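Also: spheroids exposed to drugs for one week before measurement.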
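For viability, T/C in this document: percent viability relative to DMSO vehicle control taken as 100%.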

With `C=CC(=O)N1CCN(c2nc(=O)n(-c3c(C)ccnc3C(C)C)c3nc(-c4c(O)cccc4F)c(F)cc23)C(C)C1` (configuration not stated) + COC1C(OC(N)=O)C(O)C(Oc2ccc3c(O)c(NC(=O)c4ccc(O)c(CC=C(C)C)c4)c(=O)oc3c2C)OC1(C)C the pIC50 (second compound 0.0316 µM) was under 5.00, the pIC50 (second compound 0.1 µM) was under 5.00 and the pIC50 (second compound 0.316 µM) was under 5.00. The pIC50 (second compound 1 µM) was under 5.00, the pIC50 (second compound 3.16 µM) was under 5.00 and the pIC50 (second compound 10 µM) was under 5.00. The viability, T/C (second compound 0.0316 µM, first compound 0.0316 µM) was 75.8%, the viability, T/C (second compound 0.0316 µM, first compound 0.1 µM) was 72.7% and the viability, T/C (second compound 0.0316 µM, first compound 0.316 µM) was 64.3%. For the same compound, the viability, T/C (second compound 0.0316 µM, first compound 1 µM) was 66.3%, the viability, T/C (second compound 0.0316 µM, first compound 3.16 µM) was 69% and the viability, T/C (second compound 0.0316 µM, first compound 10 µM) was 65.1%. The viability, T/C (second compound 0.1 µM, first compound 0.0316 µM) was 73.9%, the viability, T/C (second compound 0.1 µM, first compound 0.1 µM) was 69.6% and the viability, T/C (second compound 0.1 µM, first compound 0.316 µM) was 64.8%. It also gave a viability, T/C (second compound 0.1 µM, first compound 1 µM) of 63.1%, a viability, T/C (second compound 0.1 µM, first compound 3.16 µM) of 59.4% and a viability, T/C (second compound 0.1 µM, first compound 10 µM) of 73.4%. The viability, T/C (second compound 0.316 µM, first compound 0.0316 µM) was 91.4%, the viability, T/C (second compound 0.316 µM, first compound 0.1 µM) was 75.5% and the viability, T/C (second compound 0.316 µM, first compound 0.316 µM) was 69.7%. It also gave a viability, T/C (second compound 0.316 µM, first compound 1 µM) of 66.6%, a viability, T/C (second compound 0.316 µM, first compound 3.16 µM) of 70.4% and a viability, T/C (second compound 0.316 µM, first compound 10 µM) of 54.2%. For the same compound, the viability, T/C (second compound 1 µM, first compound 0.0316 µM) was 83.5%, the viability, T/C (second compound 1 µM, first compound 0.1 µM) was 70.7% and the viability, T/C (second compound 1 µM, first compound 0.316 µM) was 60.7%. It also gave a viability, T/C (second compound 1 µM, first compound 1 µM) of 73.3%, a viability, T/C (second compound 1 µM, first compound 3.16 µM) of 66.1% and a viability, T/C (second compound 1 µM, first compound 10 µM) of 70.3%. For the same compound, the viability, T/C (second compound 3.16 µM, first compound 0.0316 µM) was 77.1%, the viability, T/C (second compound 3.16 µM, first compound 0.1 µM) was 65.5% and the viability, T/C (second compound 3.16 µM, first compound 0.316 µM) was 62.3%. It also gave a viability, T/C (second compound 3.16 µM, first compound 1 µM) of 64.7%, a viability, T/C (second compound 3.16 µM, first compound 3.16 µM) of 69.3% and a viability, T/C (second compound 3.16 µM, first compound 10 µM) of 60.1%. The viability, T/C (second compound 10 µM, first compound 0.0316 µM) was 82.9%, the viability, T/C (second compound 10 µM, first compound 0.1 µM) was 74.5% and the viability, T/C (second compound 10 µM, first compound 0.316 µM) was 63.5%. It also gave a viability, T/C (second compound 10 µM, first compound 1 µM) of 58.7%, a viability, T/C (second compound 10 µM, first compound 3.16 µM) of 62.5% and a viability, T/C (second compound 10 µM, first compound 10 µM) of 56.8%.
